Data reported in paper PMC11952234, “Functional profiling of synthetic camel milk-derived peptides with implication in glucose transport and diabetes” (PLOS One, 2025).
Several values for one entry are separate records, joined by “and”; a condition that tells them apart may be missing. Equal entries are not always repeated. Where two headings read alike, the source gives them in different places. Marks after values point to notes of the source that are not given here. Residues, ends and D or L forms follow the SMILES beside them.

How the values were obtained:
[1] = test system: IR phosphorylation (pIR-Tyr1334) in HepG2 cells; assay: IR phosphorylation by western blot in HepG2 cells; type: cell-based, human; details: 10 minutes, 37°C
Experimental: (§1) Following treatment, cells were then lysed with RIPA lysis buffer and thereafter centrifuged at 12000 × g for 30 minutes. Thereafter, the extracted cell lysate proteins were quantified using the bicinchoninic acid (BCA) protein assay. To examine the phosphorylation status of IR and AKT, 30-40 μg of proteins were loaded on 10% SDS-PAGE gel followed by western blot using the following antibodies: the mouse monoclonal anti-phospho-IR (pIR-Tyr1334)(1:1000 dilution) and the mouse monoclonal anti-phospho-AKT (pAKT-S473)(1:2000 dilution) as previously described. The corresponding total proteins loaded were also analyzed in parallel using the specific antibodies against the native forms of the different proteins. Densitometry analysis of the different western blots was performed using Image Studio Version 5.2 software from LICOR (Lincoln, Nebraska, USA).

HepG2 cells = assay: Glucose uptake assay (Glucose Uptake-Glo) in HepG2 cells; type: cell-based, human; details: 1 hour, 37°C; for glucose uptake, specific luminescence signal, Average: Average of Experiments 1-5, HepG2, 0.1 mg/ml peptide or 1 μM insulin, minimal data set for Figure 5; for % of glucose uptake: HepG2 cells, 0.1 mg/ml peptide or 1 μM insulin, % of insulin's response taken as 100%, mean ± SD of five independent experiments in triplicate
Experimental: Glucose uptake in HepG2 cells was carried out using Glucose Uptake-Glo Assay (Promega). For this, cells seeded in a 96-well white plate (50,000 cells/well) were first washed with PBS and starved in phenol red-, glucose-, and serum-free medium (Dulbecco’s modified Eagle’s medium containing 0.01 mM HEPES, 0.3 mg/ml glutamine, 100 IU/ml penicillin, and 100 µg/ml streptomycin). […] The treatment was removed, and the cells were washed once with PBS and then incubated with 50 μL/well of freshly prepared 2-deoxyglucose (500 μM) for 10 minutes at room temperature. The uptake process was stopped and neutralized, followed by the addition of 50 μl/well of 2-deoxyglucose-6-phosphate (2DG6P) detection reagent and incubation for 15-60 minutes at room temperature. The glucose-6-phosphate dehydrogenase (G6PDH) oxidizes 2DG6P to 6-phosphodeoxygluconate (6PDG) and reduces NADP + to NADPH. The reductase uses NADPH to convert the proluciferin to luciferin, which is then used by Ultra-Glo™ recombinant luciferase to produce luminescence. This luminescence, proportional to the amount of 2-deoxyglucose transported inside the cells upon treatment, was then measured using a 0.3–1 second integration on GloMax® Discover luminometer according to Glucose Uptake-Glo™ protocol.

[2] = test system: insulin receptor (IR); insulin-induced IR-Rluc/IRS1-YFP BRET in HEK293 cells; assay: BRET assay of IR activation, peptides combined with insulin; type: cell-based, human; details: for insulin-induced BRET, % of insulin's response in the vehicle, Average: Average of Experiments 1-7; for insulin-induced BRET, % of insulin's response in the vehicle, Average / insulin-induced BRET, % of insulin's response in the vehicle / % of maximal BRET (insulin-induced): 1 μM insulin + 0.1 mg/ml peptide; for insulin-induced BRET, % of insulin's response in the vehicle, Average / insulin-induced BRET, % of insulin's response in the vehicle: HEK293, minimal data set for Figure 2; for % of maximal BRET (insulin-induced): 1 hour, 37°C, % of insulin's response in the vehicle taken as 100%, mean ± SD of five to seven independent experiments in triplicate; for profile on insulin-dependent BRET response in combined treatment (in words): compared to insulin alone (Vehicle)
Experimental: (§2) HepG2 and HEK293 cells were maintained at 37°C, 5% CO2 in complete RPMI and Dulbecco’s modified Eagle’s medium (DMEM), respectively, containing 0.3 mg/ml glutamine, 100 IU/ml penicillin, and 100 µg/ml streptomycin) supplemented with 10% fetal calf serum (Gibco, Carlsbad, CA, USA). The transient transfection in HEK293 cells was carried out in 75 cm flask containing 10^7 cells using Lipofectamine 2000 and 5 µg of IR-Rluc and 5 µg of IRS1-YFP (for BRET and phosphorylation experiments) as previously described. All assays were performed 48 hours post-transfection.
(§3) BRET technology was used for IR activation and its interaction with IRS1 as previously described. […] Following treatments, 10 μl of Coelenterazine h was added to a final concentration of 5 µ M and BRET measurements were carried out using the Tristar 2 multi-label plate reader (Berthold, Germany), allowing luminescence recording and signal integration at 480 nm and 540 nm.
For BRET, the data were normalized by taking as 100% of the maximal insulin-induced BRET signal in the vehicle and analyzed using GraphPad Prism software (San Diego, CA, USA). Statistical analyses were performed statistical significance between the different treatments and conditions as indicated in the figures and tables and their captions. […] The significance is indicated in the figures by stars (****p-value < 0.0001, ***p-value < 0.001, ** p-value < 0.01, * p-value < 0.05), and the absence of stars means non-significant (p-value > 0.05). However, the two-way ANOVA was used for multiple comparisons to determine the statistical significance between the different peptides when compared to each other in the different assays as described in the tables. In this case, the different letters indicate statistically significant effects (p-value < 0.05), while the same letters indicate no significant difference between the different treatments compared to each other.

[3] = target: T1, insulin receptor (IR); interaction of IR-Rluc with IRS1-YFP in HEK293 cells (Homo sapiens, UniProt P06213); assay: BRET assay of IR activation (IR-Rluc/IRS1-YFP), single treatment, dose-response; type: cell-based; details: for BRET, % of the maximal response of insulin, Average / Emax: HEK293, 1 hour, minimal data set for Figure 1, average
T1 construct: expressed in transfected cells; host or cells: HEK293 cells, transient co-transfection; plasmids provided by Dr. Tarik Issad (Cochin Institute, Paris)
T1 sequence (P06213 28-758 limits assumed): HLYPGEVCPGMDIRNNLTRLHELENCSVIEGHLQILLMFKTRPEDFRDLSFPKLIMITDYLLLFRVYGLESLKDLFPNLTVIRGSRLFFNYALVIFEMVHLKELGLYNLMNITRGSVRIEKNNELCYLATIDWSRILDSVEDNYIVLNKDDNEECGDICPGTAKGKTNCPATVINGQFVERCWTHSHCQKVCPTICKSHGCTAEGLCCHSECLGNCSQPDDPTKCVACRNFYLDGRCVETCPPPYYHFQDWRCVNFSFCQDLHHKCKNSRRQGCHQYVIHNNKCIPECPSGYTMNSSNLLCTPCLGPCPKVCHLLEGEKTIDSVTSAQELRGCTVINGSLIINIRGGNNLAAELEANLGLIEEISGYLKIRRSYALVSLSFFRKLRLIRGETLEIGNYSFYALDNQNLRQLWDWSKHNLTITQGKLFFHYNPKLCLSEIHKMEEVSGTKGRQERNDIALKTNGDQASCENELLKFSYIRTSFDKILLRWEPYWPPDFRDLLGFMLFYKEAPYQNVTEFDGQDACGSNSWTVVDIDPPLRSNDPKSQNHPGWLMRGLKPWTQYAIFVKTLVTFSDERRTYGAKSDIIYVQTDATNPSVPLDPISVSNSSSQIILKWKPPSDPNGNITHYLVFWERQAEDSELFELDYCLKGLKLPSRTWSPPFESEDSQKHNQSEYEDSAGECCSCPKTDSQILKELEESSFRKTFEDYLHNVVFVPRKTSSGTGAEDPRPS
T1 sequence (P06213 763-1382 limits assumed): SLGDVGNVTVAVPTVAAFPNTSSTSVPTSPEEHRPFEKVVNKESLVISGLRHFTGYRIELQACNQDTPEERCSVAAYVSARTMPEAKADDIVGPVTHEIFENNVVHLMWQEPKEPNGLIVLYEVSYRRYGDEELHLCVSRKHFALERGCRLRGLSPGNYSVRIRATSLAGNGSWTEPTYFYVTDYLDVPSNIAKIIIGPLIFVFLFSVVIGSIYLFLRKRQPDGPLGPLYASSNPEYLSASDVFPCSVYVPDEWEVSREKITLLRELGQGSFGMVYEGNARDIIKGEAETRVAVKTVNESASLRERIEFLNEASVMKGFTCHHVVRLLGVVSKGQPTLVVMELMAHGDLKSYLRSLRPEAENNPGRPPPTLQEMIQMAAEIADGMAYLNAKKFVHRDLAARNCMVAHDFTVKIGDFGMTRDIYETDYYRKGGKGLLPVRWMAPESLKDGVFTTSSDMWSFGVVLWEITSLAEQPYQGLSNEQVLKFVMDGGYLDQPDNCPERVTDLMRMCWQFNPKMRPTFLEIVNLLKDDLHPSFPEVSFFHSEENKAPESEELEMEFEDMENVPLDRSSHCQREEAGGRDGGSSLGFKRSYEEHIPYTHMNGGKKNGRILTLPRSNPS
Experimental: as §2, §3
Statistical analyses were performed statistical significance between the different treatments and conditions as indicated in the figures and tables and their captions. […] The significance is indicated in the figures by stars (****p-value < 0.0001, ***p-value < 0.001, ** p-value < 0.01, * p-value < 0.05), and the absence of stars means non-significant (p-value > 0.05). However, the two-way ANOVA was used for multiple comparisons to determine the statistical significance between the different peptides when compared to each other in the different assays as described in the tables.

[4] = test system: AKT phosphorylation (pAKT-S473) in HepG2 cells; assay: AKT phosphorylation by western blot in HepG2 cells; type: cell-based, human; details: 10 minutes, 37°C
Experimental: as §1

[5] = 0.1 mg/ml peptide, 3 independent experiments
[6] = HEK293 cells, 0.1 mg/ml peptide + 1 μM insulin
[7] = 1 μM insulin + 0.1 mg/ml peptide
[8] = HEK293, read-out: BRET, % of the maximal response of insulin, Average, peptide 0.001 mg/ml, 37°C
[9] = HEK293, read-out: BRET, % of the maximal response of insulin, Average, peptide 0.005 mg/ml, 37°C
[10] = HEK293, read-out: BRET, % of the maximal response of insulin, Average, peptide 0.01 mg/ml, 37°C
[11] = HEK293, read-out: BRET, % of the maximal response of insulin, Average, peptide 0.05 mg/ml, 37°C
[12] = HEK293, read-out: BRET, % of the maximal response of insulin, Average, peptide 0.1 mg/ml, 37°C
[13] = HEK293, read-out: BRET, % of the maximal response of insulin, Average, peptide 0.5 mg/ml, 37°C
[14] = HEK293, read-out: BRET, % of the maximal response of insulin, Average, peptide 1 mg/ml, 37°C

With MPVQA [Peptide P4] the “IR phosphorylation, single treatment (in words)” value [1, 5] was “led to IR and AKT phosphorylation”, the “glucose uptake, specific luminescence signal, Average” value (shortened to “glucose uptake … Average”) (HepG2 cells) was 1978100 and the “% of glucose uptake” value (HepG2 cells) was 78 ± 18^b %. The “insulin-induced BRET, % of insulin's response in the vehicle, Average” value (“insulin-induced BRET, % … Average” below) [2] was 113.5, the “insulin-induced BRET, % of insulin's response in the vehicle” value ([2]; Experiment 1) was 76.2 and the “insulin-induced BRET, % of insulin's response in the vehicle” value ([2]; Experiment 2) was 79.6. For the same compound, the “insulin-induced BRET, % of insulin's response in the vehicle” value ([2]; Experiment 3) was 121.9, the “insulin-induced BRET, % of insulin's response in the vehicle” value ([2]; Experiment 4) was 113.1 and the “insulin-induced BRET, % of insulin's response in the vehicle” value ([2]; Experiment 5) was 93.8. The “insulin-induced BRET, % of insulin's response in the vehicle” value ([2]; Experiment 6) was 168.9, the “insulin-induced BRET, % of insulin's response in the vehicle” value ([2]; Experiment 7) was 141.2 and the “% of maximal BRET (insulin-induced)” value ([2]; HEK293 cells) was 114 ± 13^a %. For the same compound, the “profile on insulin-dependent BRET response in combined treatment (in words)” value (“profile” for short) [2, 6] was “non-efficient”, the “% of maximal BRET” value ([3]; HEK293 cells co-expressing IR-Rluc and IRS1-YFP, single treatment 60 min, 37°C, maximal BRET increase of dose-response, % of insulin's response taken as 100%, mean ± SD of four independent experiments in triplicate) was 13 ± 1^c % and the “BRET increase in single treatment (in words)” value ([3]; HEK293 cells, peptides applied alone) was “did not promote any significant BRET increase”. The “BRET, % of the maximal response of insulin, Average” value (“BRET, % … of insulin, Average” below) ([3]; peptide 0.001 mg/ml, 37°C) was 10.7, the “BRET, % … of insulin, Average” value ([3]; peptide 0.005 mg/ml, 37°C) was 9.6 and the “BRET, % … of insulin, Average” value ([3]; peptide 0.01 mg/ml, 37°C) was 15.8. The “BRET, % … of insulin, Average” value ([3]; peptide 0.05 mg/ml, 37°C) was 14.2, the “BRET, % … of insulin, Average” value ([3]; peptide 0.1 mg/ml, 37°C) was 10.1 and the “BRET, % … of insulin, Average” value ([3]; peptide 0.5 mg/ml, 37°C) was 15.2. The “BRET, % … of insulin, Average” value ([3]; peptide 1 mg/ml, 37°C) was 10.9 and the “AKT phosphorylation, single treatment (in words)” value [4, 5] was “led to IR and AKT phosphorylation”.

In the case of `CSCC[C@H](NC(=O)[C@H](Cc1c[nH]cn1)NC(=O)[C@H](CS)NC(=O)[C@@H]1CCCN1C(=O)[C@H](CC(C)C)NC(=O)[C@@H]1CCCN1C(=O)[C@@H]1CCCN1C(=O)[C@H](CC(C)C)NC(=O)[C@H](CS)NC(=O)[C@H](CS)NC(=O)[C@H](C)NC(=O)[C@@H](NC(=O)[C@H](C)NC(=O)[C@@H]1CCCN1)C(C)C)C(=O)O` [Peptide P2] (H-PAVACCLPPLPCHM-OH; N-terminus and C-terminus assumed), the “insulin-induced IR phosphorylation, combined treatment (in words)” value [1, 7] is reported as “no inhibitory action”, the “glucose uptake … Average” value (HepG2 cells) is reported as 1417300 and the “% of glucose uptake” value (HepG2 cells) is reported as 56 ± 9^b %. For the same compound, the “insulin-induced BRET, % … Average” value [2] was 52.0, the “insulin-induced BRET, % of insulin's response in the vehicle” value ([2]; Experiment 1) was 76.0 and the “insulin-induced BRET, % of insulin's response in the vehicle” value ([2]; Experiment 2) was 33.7. For the same compound, the “insulin-induced BRET, % of insulin's response in the vehicle” value ([2]; Experiment 3) was 14.3, the “insulin-induced BRET, % of insulin's response in the vehicle” value ([2]; Experiment 4) was 58.1 and the “insulin-induced BRET, % of insulin's response in the vehicle” value ([2]; Experiment 5) was 54.3. The “insulin-induced BRET, % of insulin's response in the vehicle” value ([2]; Experiment 6) was 70.5, the “insulin-induced BRET, % of insulin's response in the vehicle” value ([2]; Experiment 7) was 56.8 and the “% of maximal BRET (insulin-induced)” value ([2]; HEK293 cells) was 52 ± 8% and 52 ± 8^b %. For the same compound, the “decrease of the insulin-dependent BRET response” value [2, 6] was ~ 50%, the “profile” value [2, 6] was “antagonistic” and the Emax [3, 8] was 6.9%. It also gave an Emax [3, 9] of 19.9%, an Emax [3, 10] of 32.1% and an Emax [3, 11] of 47.3%. The Emax [3, 12] was 59.2%, the Emax [3, 13] was 68.7% and the Emax [3, 14] was 58.9%.

For `CC(C)[C@H](N)C(=O)N1CCC[C@H]1C(=O)N[C@@H](Cc1ccccc1)C(=O)O` [Peptide P7, VPF] (H-Val-Pro-Phe-OH; N-terminus and C-terminus assumed), the “glucose uptake … Average” value (HepG2 cells) was 2605600, the “insulin-induced BRET, % … Average” value [2] was 146.7 and the “insulin-induced BRET, % of insulin's response in the vehicle” value ([2]; Experiment 2) was 149.4. For the same compound, the “insulin-induced BRET, % of insulin's response in the vehicle” value ([2]; Experiment 3) was 179.1, the “insulin-induced BRET, % of insulin's response in the vehicle” value ([2]; Experiment 4) was 160.6 and the “insulin-induced BRET, % of insulin's response in the vehicle” value ([2]; Experiment 6) was 120.3. For the same compound, the “insulin-induced BRET, % of insulin's response in the vehicle” value ([2]; Experiment 7) was 124.3, the “% of maximal BRET (insulin-induced)” value ([2]; HEK293 cells) was 147 ± 11^d % and the “profile” value [2, 6] was “potentiating”. The Emax [3, 8] was 7.4%, the Emax [3, 9] was 26.1% and the Emax [3, 10] was 31.2%. It also gave an Emax [3, 11] of 44.3%, an Emax [3, 12] of 40.4% and an Emax [3, 13] of 50.8%. The Emax [3, 14] was 41.1% and the “insulin-induced AKT phosphorylation, combined treatment (in words)” value [4, 7] was “slightly potentiated”.
